Patent US7462630B2, “Diarylalkene derivatives and novel diarylalkane derivatives” (Ajinomoto Co., Inc., priority 2001, dated 2008)

Columns and labels:
[1] = molecular target: T1, N-type calcium channel (Homo sapiens, UniProt Q00975); assay: Antagonistic activity on N-type calcium channel (fluorescence dye method, KCl-stimulated intracellular calcium change in IMR-32 cells with 1 μM Nifedipine); format: cell-based; details: 10 μM test compound, 60 mM KCl stimulation, read-out: Antagonistic activity on N-type calcium channels at 10 μM inhibition rate (%)
T1 construct: host or cells: IMR-32 human neuroblastoma cells, differentiated with dibutyl cAMP and 5-bromodeoxyuridine
T1 sequence (Q00975 whole entry): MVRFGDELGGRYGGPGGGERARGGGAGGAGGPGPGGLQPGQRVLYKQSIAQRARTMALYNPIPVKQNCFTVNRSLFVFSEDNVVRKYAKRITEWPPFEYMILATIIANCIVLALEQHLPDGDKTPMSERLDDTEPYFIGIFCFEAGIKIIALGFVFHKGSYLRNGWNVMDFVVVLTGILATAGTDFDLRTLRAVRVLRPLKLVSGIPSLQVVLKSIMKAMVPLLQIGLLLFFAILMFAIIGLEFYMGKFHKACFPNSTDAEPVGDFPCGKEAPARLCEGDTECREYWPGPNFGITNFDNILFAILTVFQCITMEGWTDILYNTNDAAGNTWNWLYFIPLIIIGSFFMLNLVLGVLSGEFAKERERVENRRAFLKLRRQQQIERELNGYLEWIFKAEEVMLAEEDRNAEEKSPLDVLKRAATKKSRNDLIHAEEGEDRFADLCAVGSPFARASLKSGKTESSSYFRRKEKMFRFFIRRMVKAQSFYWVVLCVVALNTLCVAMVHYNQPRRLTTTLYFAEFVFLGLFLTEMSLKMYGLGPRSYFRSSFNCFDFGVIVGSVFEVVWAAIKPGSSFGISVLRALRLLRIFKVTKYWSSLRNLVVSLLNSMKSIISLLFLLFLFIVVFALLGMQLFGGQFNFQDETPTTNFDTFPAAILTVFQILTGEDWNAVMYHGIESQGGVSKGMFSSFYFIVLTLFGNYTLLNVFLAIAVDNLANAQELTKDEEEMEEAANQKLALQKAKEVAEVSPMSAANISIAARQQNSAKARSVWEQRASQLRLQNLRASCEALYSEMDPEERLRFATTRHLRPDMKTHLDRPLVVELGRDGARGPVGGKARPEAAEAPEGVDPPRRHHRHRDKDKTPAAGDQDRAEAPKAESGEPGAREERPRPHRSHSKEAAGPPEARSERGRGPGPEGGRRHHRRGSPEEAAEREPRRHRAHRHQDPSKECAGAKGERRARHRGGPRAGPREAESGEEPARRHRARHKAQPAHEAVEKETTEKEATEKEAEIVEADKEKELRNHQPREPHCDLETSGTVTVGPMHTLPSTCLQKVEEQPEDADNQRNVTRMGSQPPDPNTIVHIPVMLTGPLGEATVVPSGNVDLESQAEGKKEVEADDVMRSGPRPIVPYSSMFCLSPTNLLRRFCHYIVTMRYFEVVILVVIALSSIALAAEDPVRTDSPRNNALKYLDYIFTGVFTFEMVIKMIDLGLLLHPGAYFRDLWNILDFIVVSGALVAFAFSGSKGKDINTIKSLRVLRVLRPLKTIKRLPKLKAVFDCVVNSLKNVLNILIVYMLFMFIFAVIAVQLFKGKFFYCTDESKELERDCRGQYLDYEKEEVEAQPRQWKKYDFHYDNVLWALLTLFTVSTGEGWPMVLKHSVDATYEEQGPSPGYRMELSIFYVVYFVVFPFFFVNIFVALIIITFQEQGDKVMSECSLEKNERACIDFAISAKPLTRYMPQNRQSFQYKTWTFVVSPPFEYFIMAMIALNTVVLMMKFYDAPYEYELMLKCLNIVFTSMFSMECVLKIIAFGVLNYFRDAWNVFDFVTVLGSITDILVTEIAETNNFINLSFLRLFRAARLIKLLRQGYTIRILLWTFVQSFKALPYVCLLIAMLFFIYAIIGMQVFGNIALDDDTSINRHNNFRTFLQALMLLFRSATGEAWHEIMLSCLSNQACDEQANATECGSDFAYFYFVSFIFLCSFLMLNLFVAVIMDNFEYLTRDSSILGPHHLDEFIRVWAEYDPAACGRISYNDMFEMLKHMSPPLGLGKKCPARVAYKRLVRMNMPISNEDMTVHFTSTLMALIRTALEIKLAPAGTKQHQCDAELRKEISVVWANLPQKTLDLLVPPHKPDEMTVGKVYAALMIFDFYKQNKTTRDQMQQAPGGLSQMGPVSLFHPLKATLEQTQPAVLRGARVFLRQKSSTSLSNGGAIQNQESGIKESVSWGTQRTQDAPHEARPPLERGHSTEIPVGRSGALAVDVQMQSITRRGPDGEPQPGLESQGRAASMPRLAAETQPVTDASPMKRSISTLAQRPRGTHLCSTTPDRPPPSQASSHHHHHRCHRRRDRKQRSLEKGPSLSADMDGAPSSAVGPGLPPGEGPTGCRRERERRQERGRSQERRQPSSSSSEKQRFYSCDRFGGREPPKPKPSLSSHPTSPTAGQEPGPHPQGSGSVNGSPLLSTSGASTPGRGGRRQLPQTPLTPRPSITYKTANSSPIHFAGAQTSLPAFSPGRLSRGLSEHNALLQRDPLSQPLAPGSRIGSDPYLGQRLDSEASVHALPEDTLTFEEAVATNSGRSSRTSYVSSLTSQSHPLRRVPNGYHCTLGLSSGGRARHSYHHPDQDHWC
T1 sequence (P54284 whole entry partner): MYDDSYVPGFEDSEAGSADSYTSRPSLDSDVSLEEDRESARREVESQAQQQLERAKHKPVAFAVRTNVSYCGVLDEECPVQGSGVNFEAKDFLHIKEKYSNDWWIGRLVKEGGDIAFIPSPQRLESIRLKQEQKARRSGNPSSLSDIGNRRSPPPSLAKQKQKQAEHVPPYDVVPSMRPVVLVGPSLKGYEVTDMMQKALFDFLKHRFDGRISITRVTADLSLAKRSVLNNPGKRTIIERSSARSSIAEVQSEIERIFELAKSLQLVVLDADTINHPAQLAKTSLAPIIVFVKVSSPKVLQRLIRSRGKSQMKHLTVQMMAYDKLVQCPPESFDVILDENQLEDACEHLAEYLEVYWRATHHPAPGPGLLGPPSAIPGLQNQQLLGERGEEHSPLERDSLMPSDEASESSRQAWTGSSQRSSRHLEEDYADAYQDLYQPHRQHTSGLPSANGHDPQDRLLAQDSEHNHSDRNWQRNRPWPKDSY
T1 sequence (P54289 25-956 partner limits assumed): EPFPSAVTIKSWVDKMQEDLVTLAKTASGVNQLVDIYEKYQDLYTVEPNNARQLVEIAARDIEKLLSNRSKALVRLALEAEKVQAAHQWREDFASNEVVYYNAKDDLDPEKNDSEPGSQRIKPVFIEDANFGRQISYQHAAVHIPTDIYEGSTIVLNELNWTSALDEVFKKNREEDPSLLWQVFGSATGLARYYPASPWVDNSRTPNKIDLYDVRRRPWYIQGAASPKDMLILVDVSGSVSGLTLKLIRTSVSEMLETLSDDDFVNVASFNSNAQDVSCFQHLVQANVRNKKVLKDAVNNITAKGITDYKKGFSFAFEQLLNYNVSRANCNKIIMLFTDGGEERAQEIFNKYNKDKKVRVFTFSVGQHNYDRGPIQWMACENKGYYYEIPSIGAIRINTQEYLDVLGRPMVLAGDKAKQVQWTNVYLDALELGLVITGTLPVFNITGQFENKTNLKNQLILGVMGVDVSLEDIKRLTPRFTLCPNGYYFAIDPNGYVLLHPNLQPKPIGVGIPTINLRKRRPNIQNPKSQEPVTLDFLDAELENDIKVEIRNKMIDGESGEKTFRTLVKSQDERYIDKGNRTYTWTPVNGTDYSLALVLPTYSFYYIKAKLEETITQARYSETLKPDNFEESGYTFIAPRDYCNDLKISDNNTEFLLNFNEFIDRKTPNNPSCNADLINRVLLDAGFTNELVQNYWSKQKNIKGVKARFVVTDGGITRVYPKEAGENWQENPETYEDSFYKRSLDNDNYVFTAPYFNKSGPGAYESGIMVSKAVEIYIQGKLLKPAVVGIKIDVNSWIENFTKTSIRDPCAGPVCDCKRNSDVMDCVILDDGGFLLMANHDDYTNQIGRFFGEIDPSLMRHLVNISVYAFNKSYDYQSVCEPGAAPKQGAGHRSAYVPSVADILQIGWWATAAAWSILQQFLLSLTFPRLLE
T1 sequence (P54289 957-1103 partner limits assumed): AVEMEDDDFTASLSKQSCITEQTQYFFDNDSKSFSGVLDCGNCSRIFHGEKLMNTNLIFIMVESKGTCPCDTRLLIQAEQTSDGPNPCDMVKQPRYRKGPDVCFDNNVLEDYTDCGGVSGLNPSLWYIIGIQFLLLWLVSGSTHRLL
Procedure: Human neuroblastoma cells IMR-32 were obtained from ATCC (American Type Culture Collection). The medium used was a Phenol Red-free Eagle minimum essential medium containing earle's salts (GIBCO) supplemented with 2 mM of L-glutamine (GIBCO), 1 mM of sodium pyruvate (pH 6.5) (GIBCO), antibiotic/antimycotic mixture (GIBCO) and 10% fetal calf serum (Cell Culture Technologies). Three ml of 1×10^5 cells/ml IMR-32 cells were spread on the glass bottom of a dish (Iwaki Glsss Co., Ltd.) having a diameter of 35 mm which had been treated with poly-L-lysin (SIGMA) and collagen (COLLAGEN VITROGEN 100; Collagen Co.). After the culture for 1 day, 1 mM (final concentration) of dibutyl cAMP and 2.5 μM (final concentration) of 5-bromodeoxyuridine (SIGMA) were added. After the culture for additional 10 to 14 days, the cells were subjected to the activity determination.
The medium for IMR-32 cells thus prepared was replaced with 1 ml of Phenol Red-free Eale minimum essential medium (GIBCO) containing 2.5 μM fura-2/AM (Dojin Kagaku, Co.) and earle's salts supplement, and the incubation was conducted at 37° C. for 30 minutes. Then the medium was replaced with a recording medium (20 mM of HEPES-KOH, 115 mM of NaCl, 5.4 mM of KCl, 0.8 mM of MgCl2, 1.8 mM of CaCl2 and 13.8 mM of D-glucose). Antagonistic activity on N-type calcium channel was determined and analyzed using a fluorescence microscope (Nikon Corporation) and an image analysis device ARGUS 50 (Hamamatsu Photonics). In particular, a recording medium (20 mM of HEPES-KOH, 115 mM of NaCl, 5.4 mM of KCl, 0.8 mM of MgCl2, 1.8 mM of CaCl2 and 13.8 mM of D-glucose) containing 1 μM of Nifedipine was given to the cells by reflux by a Y-tube method for 2 minutes. Then a stimulating agent containing 60 mM of potassium chloride was rapidly given by the Y-tube method. The calcium concentration change in the cells in this step was shown as the N-type calcium channel activity. Then stimulating agents containing 60 mM of potassium chloride and 0.1, 1 or 10 μM of the test compound were successively and rapidly given to the cells by the Y-tube method to determine the change in the intracellular calcium concentration. The antagonistic activity on N-type calcium channel was calculated from the inhibition rate (%) at a concentration of 10 μM.

[2] = molecular target: T2, L-type calcium channel (Rattus norvegicus, UniProt P22002); assay: Antagonistic activity on L-type calcium channel (relaxation response against KCl-induced contraction of isolated rat thoracic aorta); details: read-out: Antagonistic action on L-type calcium channels pIC50 (converted)
T2 construct: relaxation response against the KCl-induced contraction of isolated rat thoracic aorta was employed; from tissue; host or cells: endothelium-denuded thoracic aorta rings of Wistar rat
Procedure: The antagonistic activity of the new diarylalkene derivatives and diarylalkane derivatives of the present invention to inhibit L-type calcium channel was determined by the following method in which the relaxation response against the KCl-induced contraction of isolated rat thoracic aorta was employed.
The slips of thoracic aorta isolated from a Wistar rat were used. The aorta was cut to obtain ring-shaped samples having a width of about 3 mm. The endothelial cells of the samples were mechanically removed. The samples were suspended in a strain gage in Tyrode's solution (158.3 mM of NaCl, 4.0 mM of KCl, 1.05 mM of MgCl2, 0.42 mM of NaH2PO4, 10 mM of NaHCO3, 2 mM of CaCl2 and 5 mM of glucose) in which a gaseous mixture of O2 (95%) and CO2 (5%) was introduced. A static tension of 2 g was applied thereto. The tension of the blood vessel was amplified with a transducer and a tension amplifier (EF-601G; Nihon Koden Corporation) and recorded with a multi-pen recorder (Rikadenki Kogyo Co., Ltd.). The experiments were conducted at 37° C.
After the tension had been stabilized, the nutrient solution in the sample tank was replaced with High K^+ Tyrode's solution (112.3 mM of NaCl, 50 mM of KCl, 1.05 mM of MgCl2, 0.42 mM of NaH2PO4, 10 mM of NaHCO3, 2 mM of CaCl2 and 5 mM of glucose) to conduct the contraction reaction. Thirty minutes after, the solution in the sample tank was replaced with the normal Tyrode's solution. The solution in the sample tank was again replaced with the High K^+ Tyrode's solution and the contraction reaction was observed. After attaining the maximum contraction reaction, the test compound was cumulatively added at intervals of 90 minutes to attain concentrations of 10^−9, 10^−8, 10^−7 and 10^−6 M. The inhibitory rate of the test compound against the maximum contraction response was employed as the index of the antagonistic activity on L-type calcium channels.
The value of pIC50 indicates the antagonistic activity of the test compound, i. e. the negative logarithm of the concentration of the test compound necessitated for the 50% inhibition.

Structure (SMILES) | inhibition at 10 µM [1] | IC50 [2]
CC(C)(C)OC(=O)NCC(=O)N1CCC(=C2c3ccccc3C=Cc3ccccc32)CC1 [Example 1, t-butyl 2-[4-(5H-dibenzo[a,d][7]annulen-5-ylidene)-1-piperidinyl]-2-oxoethylcarbamate] | 67% | 1000 nM
CC(C)(C)NC(=O)CCC(=O)N1CCC(=C2c3ccccc3C=Cc3ccccc32)CC1 [Example 9, N-(t-butyl)-4-[4-(5H-dibenzo[a,d][7]annulen-5-ylidene)-1-piperidinyl]-4-oxobutanamide] | 83% | 501 nM
CC(C)(C)OC(=O)NCC(=O)N1CCC(=C2c3ccccc3CCc3ccccc32)CC1 [Example 16, t-butyl 2-[4(10,11-dihydro-5H-dibenzo[a,d][7]annulen-5-ylidene)-1-piperidinyl]-2-oxoethyl carbamate] | 75% | 1260 nM
CC(C)(C)OC(=O)NCC(=O)N1CCC(=C2c3ccccc3CSc3ccccc32)CC1 [Example 24, t-butyl 2-(4-dibenzo[b,e]thiepin-11(6H)-ylidene-1-piperidinyl)-2-oxoethylcarbamate] | 78% | 1000 nM
CC(C)(C)OC(=O)NCCCNC(=O)C=C1c2ccccc2C=Cc2ccccc21 [Example 41, t-butyl 3-[(5H-dibenzo[a,d][7]annulen-5-ylidenacetyl)amino]-propylcarbamate] | 76% | 1260 nM
CC(C)(C)OC(=O)N[C@@H](CO)CC(=O)N1CCC(=C2c3ccccc3C=Cc3ccccc32)CC1 [Example 68, (R)-t-butyl 3-[4-(5H-dibenzo[a,d][7]annulen-5-ylidene)-1-piperidinyl]-1-(hydroxymethyl)-3-oxopropylcarbamate] | 82% | 398 nM
CC(C)(C)C(=O)N[C@@H](CO)CCC(=O)N1CCC(=C2c3ccccc3C=Cc3ccccc32)CC1 [Example 72, (R)-N-[4-[4-(5H-dibenzo[a,d][7]annulen-5-ylidene)-1-piperidinyl]-1-(hydroxylmethyl)-4-oxobutyl]-2,2-dimethylpropanamide] | 81% | 794 nM
CCOC(=O)N[C@@H](CO)CC(=O)N1CCC(=C2c3ccccc3C=Cc3ccccc32)CC1 [Example 73, (R)-ethyl3-[4-(5H-dibenzo[a,d][7]annulen-5-ylidene)-1-piperidinyl]-1-(hydroxymethyl)-3-oxopropylcarbamate] | 75% | 2000 nM
CC(C)(C)OC(=O)N[C@@H](CO)CC(=O)N1CCC(=C2c3ccccc3Sc3ccccc32)CC1 [Example 76, tert-butyl (1R)-1-(hydroxymethyl)-3-oxo-3-[4-(9H-thioxanthen-9-ylidene)-1-piperidinyl]propylcarbamate] | 85% | 794 nM
CC(C)(C)C(=O)N[C@H](CO)CCC(=O)N1CCC(=C2c3ccccc3CCc3ccccc32)CC1 [Example 78] | 84% | 2510 nM
